We go through one molecule from US8772012B2 (Kabushiki Kaisha Toyota Chuo Kenkyusho, priority 2009, dated 2014).

The subject of assay [1] is Clostridium phytofermentans xylose isomerase CpXI (protein ID: YP_001558336), expressed in yeast. The settings on record: Non-patent Literature 1; cited from earlier work.
The target in assay [2] is Piromyces sp. E2 xylose isomerase PiXI-O (PiXI; codon optimized gene PiXI-O, SEQ ID NO: 46), expressed in yeast (Piromyces sp. E2, UniProt A0ACD6B9F5). The assay can be described thus: Xylose isomerase kinetic analysis, crude yeast extract of W600W/pRS436GAP-PiXI-O (SDH-coupled NADH oxidation). The format is biochemical. How it is done:
(§1) The genes were synthesized by Genscript Corporation (www.Genscript.com) and Life Technologies Corporation (www.lifetechnologies.com), and the synthesized genes were named RsXIC1-O (SEQ ID NO: 45), PiXI-O (SEQ ID NO: 46) and CpXI-O (SEQ ID NO: 47), respectively.
(§2) The W600W/pRS436GAP-RsXIC1-O strain and W600W/pRS436GAP-PiXI-O strain were cultured for 24 hours in SD liquid medium, and the cells were collected and washed twice with sterile water, and then washed twice with 100 mM phosphate buffer (pH 7.0). After washing, glass beads (di 0.3 mm, Yasui Kikai) and 100 mM phosphate buffer (pH 7.0) were added to the yeast pellets, and a Multi-beads shocker (Yasui Kikai) was operated for 7 minutes at 4° C., 2500 rpm to disrupt the yeast cells. The resulting disrupted cell liquid was centrifuged for 5 minutes at 4° C., 12000 rpm, and the supernatant was collected as a crude yeast extract. The total protein concentration of the crude yeast extract was measured with a Quick Start protein assay kit (Bio-Rad).
(§3) The reaction was performed at 30° C., and NADH absorbancy changes were measured at a wavelength of 340 nm with a Ubest-55 spectrometer (Jasco).

For assay [3], the system named is Piromyces sp. E2 xylose isomerase PiXI, expressed in yeast. To be noted: Non-patent Literature 1; cited from earlier work.
Assay [4] deals with Xylose isomerase RsXIC1-O (RsXI-C1, SEQ ID NO: 2; codon optimized gene RsXIC1-O, SEQ ID NO: 45), intestinal protist of Reticulitermes speratus, expressed in …. Put plainly: Xylose isomerase kinetic analysis, crude yeast extract of W600W/pRS436GAP-RsXIC1-O (SDH-coupled NADH oxidation). The class given is biochemical. The procedure: as §1, §2, §3
Setting [5] is: xylose 5 to 250 mM, pH 7.5, 30° C., 10 mM MgCl2, crude yeast extract, Hanes-Woolf plot.

Chain of Piromyces sp. E2 xylose isomerase PiXI-O (PiXI; codon optimized gene PiXI-O, SEQ ID NO: 46), expressed in yeast (A0ACD6B9F5 1-437): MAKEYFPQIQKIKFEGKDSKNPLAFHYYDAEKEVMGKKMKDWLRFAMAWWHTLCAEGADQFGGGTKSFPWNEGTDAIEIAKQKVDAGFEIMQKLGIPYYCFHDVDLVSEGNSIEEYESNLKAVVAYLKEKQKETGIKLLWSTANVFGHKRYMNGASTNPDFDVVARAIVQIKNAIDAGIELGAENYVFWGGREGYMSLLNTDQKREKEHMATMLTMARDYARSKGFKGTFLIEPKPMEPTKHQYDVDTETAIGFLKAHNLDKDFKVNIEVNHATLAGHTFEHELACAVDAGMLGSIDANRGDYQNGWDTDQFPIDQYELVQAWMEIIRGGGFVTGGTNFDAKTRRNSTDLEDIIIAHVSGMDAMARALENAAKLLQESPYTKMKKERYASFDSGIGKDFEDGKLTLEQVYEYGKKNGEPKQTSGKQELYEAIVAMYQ

Turning to `OC1OC[C@@H](O)[C@H](O)[C@H]1O` (stereo partly shown) [xylose], the figures for the Km in assay [1], in assay [3] and in assay [4] (setting [5]) were 66 ± 1 mM, 49.8 ± 2.82 mM and 13.3 ± 2.02 mM, respectively. In assay [2] (Vmax ratio PiXI-O vs RsXIC1-O), the “maximum reaction velocity Vmax for PiXI-O relative to RsXIC1-O” value is on record as “about 1.5 times”. For the same molecule, the Vmax in assay [2] (setting [5]) worked out at 0.078 ± 0.026 μmol/mg-protein; in assay [4] (setting [5]) it was 0.054 ± 0.007 μmol/mg-protein. The “Km value for RsXIC1-O relative to the value for PiXI-O” value in assay [4] (Km ratio RsXIC1-O vs PiXI-O) is “not more than ⅓”.
